Values joined by “and” are separate entries in the source; they are usually repeats but may differ in a detail not shown here. Equal entries are not always repeated.
What was measured:
[1] = Salmon calcitonin blood concentration, nasal powder with hydroxyapatite (Test Example 2); format: in vivo, healthy male adults (human); conditions: for Concentration of salmon calcitonin in the blood: nasal 200 MRC (IU)/25 mg, individual cases No. 1-3 in order
Description: (§1) A nasally administrable composition in powdery form was prepared by formulating salmon calcitonin as a physiologically active peptide at the rate of 200 MRC (IU) per 25 mg with hydroxyapatite as a carrier having a mean particle size ranging from 40 to 45 μm.
(§2) The resulting composition was nasally administered once at a dose of 25 mg to three healthy male adults and the blood (2.5 ml) was collected from each of the tested adults prior to administration and then at 5, 10, 15, 20, 30, 45, 60, 90, 120 and 180 minutes after administration. The concentration of the salmon calcitonin in each of the collected blood samples was assayed with a standard RIA assay kit.

[2] = Salmon calcitonin blood concentration, nasal powder with hydroxyapatite (Test Example 3); format: in vivo, healthy male adults (human); conditions: for Concentration of salmon calcitonin in the blood: nasal 200 MRC (IU)/25 mg, individual cases No. 4-7 in order
Description: as §1
as §2, with “four” for “three”

[3] = Salmon calcitonin blood concentration, nasal powder with magnesium stearate (Test Example 4); format: in vivo, healthy male adults (human)
Description: A nasally administrable composition in powdery form was prepared by formulating salmon calcitonin as a physiologically active peptide at the rate of 200 MRC (IU) per 25 mg with magnesium stearate as a carrier having a mean particle size ranging from 40 to 45 μm.
as §2, with “in each -of the collected” for “in each of the collected”

[4] = Salmon calcitonin blood concentration, nasal powder with calcium carbonate (Test Example 5); format: in vivo, healthy male adults (human)
Description: A nasally administrable composition in powdery form was prepared by formulating salmon calcitonin as a physiologically active peptide at the rate of 200 MRC (IU) per 25 mg with calcium carbonate as a carrier having a mean particle size ranging from 40 to 45 μm.
as §2

[5] = Salmon calcitonin blood concentration, nasal powder with aluminum hydroxide (Test Example 6); format: in vivo, healthy male adults (human); conditions: for Concentration of salmon calcitonin in the blood: nasal 200 MRC (IU)/25 mg, individual cases No. 14-16 in order
Description: A nasally administrable composition in powdery form was prepared by formulating salmon calcitonin as a physiologically active peptide at the rate of 200 MRC (IU) per 25 mg with aluminum hydroxide as a carrier having a mean particle size ranging from 40 to 45 μm.
as §2

[6] = Nasal absorption, clinical effect and irritation (general statement); format: in vivo
[7] = relative, among calcitonins; cited from earlier work
[8] = powder in specific carrier, nasal route

## salmon calcitonin
[1]; 0 min (predose)
  Concentration of salmon calcitonin in the blood: ~ 7 pg/ml
[1]; 5 min
  Concentration of salmon calcitonin in the blood: 55.50 pg/mL and 14.05 pg/mL and 76.25 pg/mL
[1]; 10 min
  Concentration of salmon calcitonin in the blood: 93.05 pg/mL and 44.12 pg/mL and 107.67 pg/mL
[1]; 15 min
  Concentration of salmon calcitonin in the blood: 49.84 pg/mL and 77.03 pg/mL and 118.26 pg/mL
[1]; 20 min
  Concentration of salmon calcitonin in the blood: 65.95 pg/mL and 59.36 pg/mL and 95.07 pg/mL
[1]; 30 min
  Concentration of salmon calcitonin in the blood: 21.08 pg/mL and 47.69 pg/mL and 102.78 pg/mL
[1]; 45 min
  Concentration of salmon calcitonin in the blood: 12.54 pg/mL and 24.68 pg/mL and 60.68 pg/mL
[1]; 60 min
  Concentration of salmon calcitonin in the blood: 13.50 pg/mL and 19.43 pg/mL and 42.97 pg/mL
[1]; 90 min
  Concentration of salmon calcitonin in the blood: 7.92 pg/ml and ~ 7 pg/ml and 21.78 pg/ml
[1]; 120 min
  Concentration of salmon calcitonin in the blood: ~ 7 pg/ml and 12.75 pg/ml
[1]; 180 min
  Concentration of salmon calcitonin in the blood: ~ 7 pg/ml
[1]; nasal
  absorption into the blood: high degree of absorption
[2]
  absorption through the nasal cavity: high extent of absorption
[2]; 0 min (predose)
  Concentration of salmon calcitonin in the blood: ~ 7 pg/ml
[2]; 5 min
  Concentration of salmon calcitonin in the blood: 65.30 pg/mL and 66.02 pg/mL and 57.83 pg/mL and 72.72 pg/mL
[2]; 10 min
  Concentration of salmon calcitonin in the blood: 98.88 pg/mL and 95.22 pg/mL and 83.75 pg/mL and 130.21 pg/mL
[2]; 15 min
  Concentration of salmon calcitonin in the blood: 96.96 pg/mL and 106.69 pg/mL and 91.55 pg/mL and 139.54 pg/mL
[2]; 20 min
  Concentration of salmon calcitonin in the blood: 59.91 pg/mL and 102.60 pg/mL and 63.17 pg/mL and 122.29 pg/mL
[2]; 30 min
  Concentration of salmon calcitonin in the blood: 46.96 pg/mL and 71.13 pg/mL and 48.09 pg/mL and 91.38 pg/mL
[2]; 45 min
  Concentration of salmon calcitonin in the blood: 23.89 pg/mL and 57.42 pg/mL and 30.95 pg/mL and 45.91 pg/mL
[2]; 60 min
  Concentration of salmon calcitonin in the blood: 14.31 pg/mL and 33.21 pg/mL and 19.56 pg/mL and 15.62 pg/mL
[2]; 90 min
  Concentration of salmon calcitonin in the blood: ~ 7 pg/ml (2×) and 13.06 pg/ml and 10.39 pg/ml
[2]; 120 min
  Concentration of salmon calcitonin in the blood: ~ 7 pg/ml and 8.76 pg/ml
[2]; 180 min
  Concentration of salmon calcitonin in the blood: ~ 7 pg/ml
[2]; nasal
  time of maximum concentration: reaching maximum in a short time after administration
[3]
  absorption: high extent of absorption
[4]
  absorption: high extent of absorption
[5]; 0 min (predose)
  Concentration of salmon calcitonin in the blood: ~ 7 pg/ml
[5]; 5 min
  Concentration of salmon calcitonin in the blood: 19.75 pg/mL and 26.41 pg/mL and 32.23 pg/mL
[5]; 10 min
  Concentration of salmon calcitonin in the blood: 19.35 pg/mL and 34.82 pg/mL and 24.85 pg/mL
[5]; 15 min
  Concentration of salmon calcitonin in the blood: 14.97 pg/mL and 31.66 pg/mL and 18.68 pg/mL
[5]; 20 min
  Concentration of salmon calcitonin in the blood: ~ 7 pg/ml and 37.63 pg/ml and 12.92 pg/ml
[5]; 30 min
  Concentration of salmon calcitonin in the blood: 9.15 pg/ml and 24.79 pg/ml and ~ 7 pg/ml
[5]; 45 min
  Concentration of salmon calcitonin in the blood: ~ 8 pg/ml and 13.70 pg/ml and ~ 7 pg/ml
[5]; 60 min
  Concentration of salmon calcitonin in the blood: ~ 7 pg/ml and 12.12 pg/ml
[5]; nasal
  absorption: high extent of absorption
  concentration in the blood versus injection: simlar to that obtainable by injection
[6]; homogeneously dispersed in and adsorbed onto the carrier
  bioavailability and concentration in blood: high both in bioavailability and concentration in blood
[6]; [8]
  absorption into the body: well absorbed into the body
  clinical effects: high clinical effects
[7]
  stability: relatively low in stability

Source: patent US5603943A, “Nasally administrable compositions” (Dott Research Laboratory, priority 1994, dated 1997)
